Source: publication PMC6384738, “Structure-Function Studies of Polymyxin B Lipononapeptides” (Molecules, 2019)
Converted amounts (≈) assume the structure as drawn. Where a SMILES comes first, the peptide text is derived from it. Bridges are numbered along the chain shown (N, C = ends). [ ]: non-standard residue; d: D form. The star is where a group is joined. dOrn = NCCC[C@@H](N)C(=O)O; Octanoyl = CCCCCCCC(=O)*; Orn = NCCC[C@H](N)C(=O)O; Dab = NCC[C@H](N)C(=O)O; Dap = NC[C@H](N)C(=O)O

Assays:
[1] = test system: K. pneumoniae ATCC 13833; experiment: microbe, parasite or virus in culture; settings: ATCC 13833, 18 h
Protocol: (§1) All compounds synthesised in this study were assessed for their minimum inhibitory concentrations (MIC, mg/L) by broth microdilution assay against five antibiotic-sensitive and resistant ATCC reference strains covering the Gram-negative ESKAPE pathogens (Escherichia coli, Klebsiella pneumoniae, A. baumannii, and P. aeruginosa) (Table 1, Table 2 and Table 3). Staphylococcus aureus was also included as a representative Gram-positive bacterial strain. […] Polymyxin B 1, colistin 2, vancomycin and gentamicin were used as positive inhibitor comparator compounds. Compounds were counter-screened against human proximal tubular epithelial cells (HK-2), using LDH release as a general indicator of cellular toxicity.

[2] = test system: P. aeruginosa ATTC 27853; experiment: microbe, parasite or virus in culture; settings: ATTC 27853, 18 h
Protocol: as §1

[3] = test system: E. coli ATCC 25922; experiment: microbe, parasite or virus in culture; settings: ATCC 25922, 18 h
Protocol: as §1

[4] = test system: K. pneumoniae ATCC 700603; experiment: microbe, parasite or virus in culture; settings: ATCC 700603, 18 h
Protocol: as §1

[5] = test system: A. baumannii ATCC 19606; experiment: microbe, parasite or virus in culture; settings: ATCC 19606, 18 h
Protocol: as §1

[6] = test system: K. pneumoniae BAA 2146; experiment: microbe, parasite or virus in culture; settings: BAA 2146, 18 h
Protocol: as §1

[7] = test system: S. aureus ATCC 25923; experiment: microbe, parasite or virus in culture; settings: ATCC 25923, 18 h
Protocol: as §1

[8] = in vitro; settings: human
Protocol: as §1
Cytotoxicity to human kidney proximal tubular epithelial cell line, HK-2 (ATCC CRL-2190, sourced from ATCC; Manassas, VA, USA) was determined using the LDH assay as previously described. In brief, HK-2 cells were seeded as 2000 cells/well in black-walled clear bottom 384-well tissue culture treated plates (Corning, catalogue No. 3712) in DMEM/F12 medium (Gibco® 10565-042) containing 10% of Fetal Bovine Serum (FBS, Gibco® 10099-141) and incubated for 24 h at 37 °C, 5% CO2. Compounds were then added into each well with a concentration series from 300 µM to 2.3 µM in 2-fold dilutions. Colistin and polymyxin B were used as controls and tested at a final concentration range of 1 mM to 7.8 µM. The cells were incubated with the compounds for 24 h at 37 °C, 5% CO2. After the incubation, 5 µL of culture medium was added to 45 µL of LDH assay buffer (Biovision, K313-500) and incubated for 30 min at room temperature. The absorbance (ABS) was then read at 450 nm using a Polar Star Omega plate reader. The data was analysed by Prism 6 software (GraphPad Software, La Jolla, CA, USA). Results were calculated using the following equation: cytotoxicity %= (ABSsamples − ABSuntreated/ABS1%Triton X-100 − ABSuntreated) × 100.

Row | SMILES | MIC K. pneumoniae ATCC 13833 [1] [µg/mL] | MIC P. aeruginosa ATTC 27853 [2] [µg/mL] | MIC E. coli ATCC 25922 [3] [µg/mL] | MIC K. pneumoniae ATCC 700603 [4] [µg/mL] | MIC A. baumannii ATCC 19606 [5] [µg/mL] | MIC K. pneumoniae BAA 2146 [6] [µg/mL] | MIC S. aureus ATCC 25923 [7] [µg/mL] | CC50 at 24 h [8] [µM]
1 | CCCCCCCC(=O)N[C@H](C(=O)N[C@@H](CC(N)=O)C(=O)N[C@H]1CCNC(=O)[C@H]([C@@H](C)O)NC(=O)[C@H](CCN)NC(=O)[C@H](CCN)NC(=O)[C@H](CC(C)C)NC(=O)[C@@H](Cc2ccccc2)NC(=O)[C@H](CCN)NC1=O)[C@@H](C)O [Compound 38] (Octanoyl-TN[Dab][Dab][dF]L[Dab][Dab]T; lactam 3-C) | >32 | >32 | 32 (≈ 29 µM) | >32 | >32 | >32 | >32 | 284
2 | CCCCCCCC(=O)N[C@H](C(=O)N[C@@H](CN)C(=O)N[C@H]1CCNC(=O)[C@H]([C@@H](C)O)NC(=O)[C@H](CCN)NC(=O)[C@H](CCN)NC(=O)[C@H](CC(C)C)NC(=O)[C@@H](Cc2ccccc2)NC(=O)[C@H](CCN)NC1=O)[C@@H](C)O [Compound 39] (Octanoyl-T[Dap][Dab][Dab][dF]L[Dab][Dab]T; lactam 3-C) | 1 (≈ 0.93 µM) | 1 (≈ 0.93 µM) | 1 (≈ 0.93 µM) | 1 (≈ 0.93 µM) | 1 (≈ 0.93 µM) | 0.5 (≈ 0.465 µM) | >32 | 290
3 | CCCCCCCC(=O)N[C@H](C(=O)N[C@@H](CCCN)C(=O)N[C@H]1CCNC(=O)[C@H]([C@@H](C)O)NC(=O)[C@H](CCN)NC(=O)[C@H](CCN)NC(=O)[C@H](CC(C)C)NC(=O)[C@@H](Cc2ccccc2)NC(=O)[C@H](CCN)NC1=O)[C@@H](C)O [Compound 40] (Octanoyl-T[Orn][Dab][Dab][dF]L[Dab][Dab]T; lactam 3-C) | 8 (≈ 7.25 µM) | 2 (≈ 1.81 µM) | 2 (≈ 1.81 µM) | 4 (≈ 3.63 µM) | 16 (≈ 14.5 µM) | 4 (≈ 3.63 µM) | >32 | > 300
4 | CCCCCCCC(=O)N[C@H](C(=O)N[C@H](CCCN)C(=O)N[C@H]1CCNC(=O)[C@H]([C@@H](C)O)NC(=O)[C@H](CCN)NC(=O)[C@H](CCN)NC(=O)[C@H](CC(C)C)NC(=O)[C@@H](Cc2ccccc2)NC(=O)[C@H](CCN)NC1=O)[C@@H](C)O [Compound 41] (Octanoyl-T[dOrn][Dab][Dab][dF]L[Dab][Dab]T; lactam 3-C) | 32 (≈ 29 µM) | 4 (≈ 3.63 µM) | 1 (≈ 0.906 µM) | 4 (≈ 3.63 µM) | 16 (≈ 14.5 µM) | 1 (≈ 0.906 µM) | >32 | > 300
5 | CCCCCCCC(=O)N[C@H](C(=O)N[C@@H](CCCCN)C(=O)N[C@H]1CCNC(=O)[C@H]([C@@H](C)O)NC(=O)[C@H](CCN)NC(=O)[C@H](CCN)NC(=O)[C@H](CC(C)C)NC(=O)[C@@H](Cc2ccccc2)NC(=O)[C@H](CCN)NC1=O)[C@@H](C)O [Compound 42] (Octanoyl-TK[Dab][Dab][dF]L[Dab][Dab]T; lactam 3-C) | 16 (≈ 14.3 µM) | 4 (≈ 3.58 µM) | 4 (≈ 3.58 µM) | 16 (≈ 14.3 µM) | 32 (≈ 28.6 µM) | 8 (≈ 7.16 µM) | >32 | > 300
